Earlier results as cited in PMC12785453, “Oral Fluid Concentrations and Pharmacological Effects of Clephedrone and Methylone in Humans” (International Journal of Molecular Sciences, 2025).
Values joined by “and” are separate entries in the source; they are usually repeats but may differ in a detail not shown here. Equal entries are not always repeated.

Experiments:
[1] = cited from earlier work
[2] = system: humans; settings: mephedrone, previous studies; cited from earlier work

CNC(C)C(=O)c1ccc(C)cc1 (stereo not shown) [mephedrone, 4-methylmethcathinone]
Tmax in oral fluid [1]: 2 h | Tmax in plasma [1]: 1.25 h | Effects returned to baseline after [2]: 2 to 3 h | Time of peak effects [2]: 0.75 h and 0.75 to 1 h
